# Measured values from patent US9709557B2, “Anthraquinone based near IR emitting compounds and uses thereof” (LIFE TECHNOLOGIES CORPORATION, priority 2008, dated 2017).
# Assays:
# Live Jurkat cells [1] = experiment: Evaluation of cell health after DNA staining, ImageStream imaging flow cytometer (Example 39); format: cell-based; details: 5 μM, 37° C., 30 min
# From the text: An ImageStream multispectral imaging flow cytometer is used to evaluate the live, apoptotic and mitotic rate of cycling Jurkat cells labeled with a compound of the invention (e.g., Compound 9 or a salt thereof). The platform produces high resolution brightfield, darkfield, and fluorescence images of cells prepared in suspension. IDEA analysis software I is used to quantify morphometric and photometric parameters for each cell based on the imaged collected. This technology combines the quantitative power of large sample sizes common to flow cytometry with the high information content present in microscopic images.
# Live Jurkat cells are suspended at 5×10^5 cells/ml in each RPMI media with 10% FBS. The compound (in 5 mM DMSO) is added at a concentration of 5 μM and then the cells are incubated at 37° C. for 30 minutes while protected from light before acquiring on the ImageStream cytometer using 658 nm excitation and >660 nm emission. Apoptotic, mitotic, and interphase Jurkat cells are distinguished from each other using a combination of scatter, DNA intensity, and morphology-based parameters. Apoptotic cells with high laser scatter properties are gated on the Mean Pixel SSC histogram. Low scatter apoptotic events with low DNA content or textured nuclei are identified on the dye intensity versus bright detail intensity plot. […]
# [2] = system: Jurkat cells fixed in 70% cold ethanol; experiment: Staining of fixed cells, DNA content cell cycle by flow cytometry (Example 41); format: cell-based, human; details: 5 μM, PBS, room temperature 30 min
# Experimental: Live Jurkat cells are fixed 70% cold ethanol and stored at −20° C. for one month. The cells are the washed in phosphate buffered saline (PBS) and resuspended in PBS at 5×10^5 cells/ml. Cells are labeled with a 5 μM solution of a compound according to the invention (e.g., Compound 9 or a salt thereof) at room temperature for 30 minutes and then run through two flow cytometers: A BD LSRII using 488 nm excitation and 695/40 nm emission and an Accuri C6 using 488 nm excitation and >670 nm emission, collecting 10,000 events at low flow rate. Markers are placed on the G0G1 and G2M peaks to look at % CV of the G0G1 peak and the ratio of G2M/G0G1.
# Live Jurkat cells [3] = experiment: DNA staining of live cells, 15 minute incubation (Example 46); format: cell-based, human; details: 2.5, 5, 10 μM, 37° C., 15 min; 488 and 633 nm lasers, 695/40
# Experimental: Compound 9 is diluted as a 5 mM concentration in DMSO. Live Jurkat cells are suspended at 5×10^5 cells/ml in RPMI media with 10% Fetal Bovine Serum (FBS). Compound 9 was is added to each of one mL cell suspensions at concentrations 2.5 μM, 5 μM, 10 μM and then incubated at 37° C. for 15 minutes while protected from light. Cells are run through the Becton Dickinson (BD) LSRII Flow Cytometer. Forward Scatter (FS) vs Side Scatter (SS) dual parameter plot is used to gate main cell population. Fluorescence is collected using two lasers: the 488 nm excitation laser with 695/40 bandpass emission filter, and using the 633 nm excitation laser with 695/40 bandpass emission filter. Collection of 10,000 events gated on the main population of cells was performed using a flow rate of ˜200 events/second. […] A typical DNA cell cycle histogram was generated, showing G0/G1 phase, S phase, and G2/M phase, as obtained on the live cell gate, with all concentrations of the compound.
# Live Jurkat cells [4] = experiment: DNA staining of live cells treated with RNase (Example 37); format: cell-based, human; details: 5 μM and 10 μM, 37° C. or room temperature, 30 min
# Experimental: Live Jurkat cells (human T-lymphocyte) were stained with Compound 9 with and without RNase treatment to assess DNA selectivity of the compound. Live Jurkat cells were suspended at 5×10^5 cells/ml in each RPMI media with 10% FBS. The dye was added to each of one mL cell suspensions at concentrations 5 μM and 10 μM. Duplicate conditions (dye concentration and incubation temperature) were tested. RNase was added to one test and incubated along with the dye. The other test was left untreated (no RNase present). The samples were incubated at 37° C. or room temperature for 30 minutes while protected from light. Cells were run through a Becton Dickinson (BD) LSRII Flow Cytometer, as described in Example 36.
# Live Jurkat cells [5] = experiment: Comparison of DNA stains on cell viability (Example 44); format: cell-based; details: human, 72 h, 5 μM
# Experimental: Live Jurkat cells are suspended at 5×10^5 cells/ml in complete RPMI media with 10% FBS. Four aliquots of 10 ml each of the cell suspension are made. A final concentration of 5 μM Hoechst 33342 (Invitrogen Corporation) is added to one aliquot, a final concentration of 5 μM DRAQ5 (Biostatus Limited, UK) is added to one aliquot, a final concentration of 5 μM Compound 9 is added to one aliquot, and one aliquot remains untreated as a control. All four aliquots are placed in a 37° C. waterbath for 30 minutes in protected from light. After the incubation, all cell suspensions are centrifuged, the cells are pelleted and the supernatant discarded. To each aliquot, 5 ml media is added. Four culture flasks are prepared by adding 35 ml media to each. One 5 ml aliquot of cells is added to one flask for each on the four cell suspensions aliquots. The flasks are placed in a 37° C. incubator with 5% CO2 in the dark for 72 hours. Each flask of cells is then gently mixed and cell suspension is removed for testing. The cell concentration and image is performed using the Cellometer instrument from Nexcelom. Percentage and absolute cell counts of live and dead cells for each treatment are determined using the LIVE/DEAD Viability/Cytotoxicity Kit (Invitrogen Corporation, Carlsbad, Calif.) with COUNTBRIGHT Absolute Counting Beads (Invitrogen Corporation). This involves adding one ml cell suspension to a 12×75 mm test tube and adding 2 μl of a 50 μM calcein AM solution to identify living cells and 4 μl of a 2 mM ethidium homodimer-1 solution to identify dead cells. The cell suspension is mixed and incubated for 20 minutes at room temperature protected from light. After the end of the incubation, 50 μl of well mixed COUNTBRIGHT absolute counting beads are added to each test tube. Each sample is run through the Becton Dickinson (BD) LSRII Flow Cytometer. Forward Scatter (FS) versus Side Scatter (SS) dual parameter plot is used to gate main cell population, and a separate gate is made around the bead population. Fluorescence is collected using 488 nm excitation laser with 530/30 bandpass and 610/20 bandpass emission filters. Markers on a dual parameter plot of calcein fluorescence versus ethidium homodimer-1 fluorescence is used to obtain percent of cells which are living and dead, as well as number of cell events recorded. By using the COUNTBRIGHT absolute counting beads assay, the absolute number of living and dead cells is calculated by using the equation: A/B×C/D=concentration of cells/μL (A=number of cell events, B=number of bead events, C=assigned bead count, D=volume of the sample in μl).
# [6] = Accuri C6, 488 nm excitation, >670 nm
# [7] = BD LSRII, 488 nm excitation, 695/40
smiles,measurement,setting,value
CN(C)CCNC(=O)CNc1ccc(O)c2c1C(=O)c1c(O)ccc(N)c1C2=O [Compound 9],cells dead following incubation with the dye,Live Jurkat cells [1],7.1%
same,mitotic cells as share of the live cell population,Live Jurkat cells [1],1.9%
same,% CV of the G0G1 peak,[2]; [6],5.9%
same,ratio of G2M/G0G1,[2]; [6],1.85
same,% CV of the G0G1 peak,[2]; [7],6.0%
same,ratio of G2M/G0G1,[2]; [7],1.83
same,DNA content cell cycle staining,Live Jurkat cells [3],demonstrated staining for DNA content cell cycle
same,"DNA selectivity, staining with and without RNase",Live Jurkat cells [4],DNA selective
same,% Dead Cells,Live Jurkat cells [5],26.4%
same,% Living Cells,Live Jurkat cells [5],71.2%
same,Cell Count (Cellometer),Live Jurkat cells [5],2.54 × 10^5 cells/mL
same,Cell Count (Flow Cytommetry),Live Jurkat cells [5],0.7 × 10^5 cells/mL
